Experimental data from US20090088412A1, “COMPOSITION FOR TREATING CANCER CELLS AND PREPARATION METHOD THEREOF” (KAOHSIUNG MEDICAL UNIVERSITY, priority 2007, published 2009).
Converted amounts (≈) assume the structure as drawn.

Experiments:
Hep G2 = assay: MTT cytotoxicity test, Hep G2; assay type: cell-based, human; conditions: liver cancer cell line, 72 hours
Procedure: (§1) The bioactivities of the 25 new withanolide compounds of the present invention are further studied. The bioactivities are measured by examining cytotoxicity tests with 5 human cancer cell lines, including MCF-7 and MDA-MB-231 (which are the breast cancer cell lines), Hep G2 and Hep 3B (which are the liver cancer cell line), and A549 (which is lung cancer cell line). In addition, a normal human lung cell line (MRC-5) is served as the control group. All human cancer cell lines come from the American Type Culture Collection. The respective cell lines are cultured in RPMI-1640 medium with 10% (v/v) fetal calf serum, 100 U/ml penicillin and 100 µg/ml streptomycin, and incubated at 37° C. in 5% CO2 atmosphere.
(§2) In the present invention, the cytotoxicity tests are performed with MTT (3-(4,5-dimethyl-thiazol-2-yl)-2,5-diphenyl tetrazolium bromide) method. The five cancer cell lines and the normal cell line (MRC-5) are firstly incubated in a 96-well culture dish with concentrations of 5,000˜10,000 cells/well. In Day 2, the respective incubated cells are added with the withanolide compounds of the present invention and Doxorubicin and are incubated for additional 72 hours. Afterwards, the incubated cells are examined with the MTT method including steps of dissolving the incubated cells in DMSO, and determining the absorbance of each cell line to each compound by a microplate reader in 550 nm to evaluate the cytotoxicity of each compound to each cell line. […] The IC50 represents the concentration of the compound that is required for 50% inhibition of the cell growth, and Doxorubicin serves as the positive control group.

Hep 3B = assay: MTT cytotoxicity test, Hep 3B; assay type: cell-based, human; conditions: liver cancer cell line, 72 hours
Procedure: as §1, §2

MCF-7 = assay: MTT cytotoxicity test, MCF-7; assay type: cell-based, human; conditions: breast cancer cell line, 72 hours
Procedure: as §1, §2

A-549 = assay: MTT cytotoxicity test, A-549; assay type: cell-based, human; conditions: lung cancer cell line, 72 hours
Procedure: as §1, §2

MDA-MB-231 = assay: MTT cytotoxicity test, MDA-MB-231; assay type: cell-based, human; conditions: breast cancer cell line, 72 hours
Procedure: as §1, §2

MRC-5 = assay: MTT cytotoxicity test, normal lung cell line MRC-5; assay type: cell-based; conditions: normal human lung cell line, 72 hours
Procedure: as §1, §2

| SMILES | IC50 Hep G2 (Hep G2) [µg/mL] | IC50 Hep 3B (Hep 3B) [µg/mL] | IC50 MCF-7 (MCF-7) [µg/mL] | IC50 A-549 (A-549) [µg/mL] | IC50 MDA-MB-231 (MDA-MB-231) [µg/mL] | IC50 MRC-5 (MRC-5) [µg/mL] |
| --- | --- | --- | --- | --- | --- | --- |
| CC1=C(C)C(=O)O[C@@H]([C@@H](C)[C@@]2(C)C3=C(C[C@H]2O)[C@@H]2C[C@H]4O[C@]45[C@@H](O)C(O)CC(=O)[C@]5(C)[C@H]2CC3)C1 (stereo partly drawn) [Compound 3, Tubocapsenolide C] | 15.93 (≈ 32.7 µM) | >20 | >20 | 7.06 (≈ 14.5 µM) | >20 |  |
| CC1=C(C)C(=O)O[C@@H]([C@@H](C)[C@@]2(O)CC[C@H]3[C@@H]4C[C@H]5O[C@]56[C@@H](O)C=CC(=O)[C@]6(C)[C@H]4CC[C@@]32C)C1 [Compound 14, Tubocapsanolide F] | 0.64 (≈ 1.36 µM) | 0.80 (≈ 1.7 µM) | 1.98 (≈ 4.21 µM) | 0.88 (≈ 1.87 µM) | 0.99 (≈ 2.1 µM) | 0.81 (≈ 1.72 µM) |
| CC1=C(C)C(=O)O[C@@H]([C@@H](C)[C@@]2(O)CC[C@H]3[C@@H]4C[C@H](O)[C@]5(O)[C@@H](O)C=CC(=O)[C@]5(C)[C@H]4CC[C@@]32C)C1 [Compound 13, Tubocapsanolide D] | >20 | 7.19 (≈ 14.7 µM) | >20 | 8.01 (≈ 16.4 µM) | 13.49 (≈ 27.6 µM) |  |
| CC1=C(C)C(=O)O[C@@H]([C@](C)(O)[C@@]23O[C@@H]2C[C@H]2[C@@H]4C[C@H]5O[C@]56[C@@H](O)C=CC(=O)[C@]6(C)[C@H]4CC[C@@]23C)C1 [Compound 9, 20-Hydroxytubocapsanolide A] | 0.73 (≈ 1.51 µM) | 0.99 (≈ 2.04 µM) | 1.77 (≈ 3.65 µM) | 1.42 (≈ 2.93 µM) | 0.99 (≈ 2.04 µM) | 1.36 (≈ 2.81 µM) |
| CC1=C(C)C(=O)O[C@@H]([C@@H](C)[C@@]2(C)C3=C(C[C@H]2O)[C@@H]2C[C@H](Cl)[C@]4(O)[C@@H](O)C=CC(=O)[C@]4(C)[C@H]2CC3)C1 [Compound 7, Tubocapsenolide G] | 19.12 (≈ 37.9 µM) | >20 | >20 | 19.94 (≈ 39.5 µM) | >20 |  |
| COC1CC(=O)[C@]2(C)[C@H]3CC[C@@]4(C)[C@@H](CC[C@]4(O)[C@H](C)[C@H]4CC(C)=C(C)C(=O)O4)[C@@H]3C[C@H]3O[C@]32[C@H]1O (stereo partly drawn) [Compound 15, Tubocapsanolide G] | 17.55 (≈ 34.9 µM) | >20 | >20 | >20 | >20 |  |
| COC1CC(=O)[C@]2(C)[C@H]3CC[C@]4(C)C([C@@](C)(O)[C@H]5CC(C)=C(C)C(=O)O5)=CC[C@H]4[C@@H]3C[C@H]3O[C@]32[C@H]1O (stereo partly drawn) [Compound 18, Tubocapsanolide H] | 3.67 (≈ 7.33 µM) | 2.65 (≈ 5.29 µM) | 9.27 (≈ 18.5 µM) | 7.50 (≈ 15 µM) | 4.82 (≈ 9.63 µM) | 15.23 (≈ 30.4 µM) |
| C[C@@]12CC([C@@]3(O)CC[C@H]4[C@@H]5C[C@H]6O[C@]67[C@@H](O)C=CC(=O)[C@]7(C)[C@H]5CC[C@@]43C)[C@@H](C1)OC(=O)[C@]2(C)O (stereo partly drawn) [Compound 19, Anomanolide A] | 3.11 (≈ 6.39 µM) | 3.63 (≈ 7.46 µM) | 2.31 (≈ 4.75 µM) | 1.01 (≈ 2.08 µM) | 1.37 (≈ 2.82 µM) | 1.91 (≈ 3.93 µM) |
| CC1=C(C)C(=O)O[C@@H]([C@@H](C)[C@@]23O[C@@H]2C[C@H]2[C@@H]4C[C@H]5O[C@]56[C@@H](O)C=CC(=O)[C@]6(C)[C@H]4CC[C@@]23C)C1 [Compound 8, Tubocapsanolide A] | 0.86 (≈ 1.84 µM) | 0.42 (≈ 0.896 µM) | 1.47 (≈ 3.14 µM) | 0.47 (≈ 1 µM) | 0.22 (≈ 0.469 µM) | 0.73 (≈ 1.56 µM) |
| CCCCOC1CC(=O)[C@]2(C)[C@H]3CCC4=C(C[C@@H](O)[C@@]4(C)[C@H](C)[C@H]4CC(C)=C(C)C(=O)O4)[C@@H]3C[C@H]3O[C@]32[C@H]1O (stereo partly drawn) [Compound 5, Tubocapsenolide E] | 12.31 (≈ 22.7 µM) | 13.20 (≈ 24.3 µM) | >20 | 15.94 (≈ 29.4 µM) | 17.50 (≈ 32.2 µM) |  |
| C[C@@]12CC([C@@]3(O)[C@H](O)C[C@H]4[C@@H]5C[C@H](Cl)[C@]6(O)[C@@H](O)C=CC(=O)[C@]6(C)[C@H]5CC[C@@]43C)[C@@H](C1)OC(=O)[C@]2(C)O (stereo partly drawn) [Compound 22, Anomanolide D] | >20 | 19.03 (≈ 35.3 µM) | >20 | >20 | >20 |  |
| C[C@@]12CC([C@@]3(O)[C@H](O)C[C@H]4[C@@H]5C[C@H](O)[C@]6(O)CC=CC(=O)[C@]6(C)[C@H]5CC[C@@]43C)[C@@H](C1)OC(=O)[C@]2(C)O (stereo partly drawn) [Compound 23, Anomanolide E] | >20 | >20 | >20 | >20 | >20 |  |
| CC1=C(C)C(=O)O[C@@H]([C@@H](C)[C@@]2(C)C3=C(C[C@H]2O)[C@@H]2C[C@H](O)[C@]4(O)[C@@H](O)C=CC(=O)[C@]4(C)[C@H]2CC3)C1 [Compound 6, Tubocapsenolide F] | >20 | 15.07 (≈ 31 µM) | 14.71 (≈ 30.2 µM) | 6.04 (≈ 12.4 µM) | 8.41 (≈ 17.3 µM) |  |
| C[C@@]12CC([C@@]3(O)[C@H](O)C[C@H]4[C@@H]5C[C@H]6O[C@]67[C@@H](O)C=CC(=O)[C@]7(C)[C@H]5CC[C@@]43C)[C@@H](C1)OC(=O)[C@]2(C)O (stereo partly drawn) [Compound 21, Anomanolide C] | 4.41 (≈ 8.77 µM) | 1.85 (≈ 3.68 µM) | 8.01 (≈ 15.9 µM) | 2.80 (≈ 5.57 µM) | 1.58 (≈ 3.14 µM) |  |
| C[C@@]12CC([C@@]3(O)[C@H](O)C[C@H]4[C@@H]5CC[C@]6(O)[C@@H](O)C=CC(=O)[C@]6(C)[C@H]5CC[C@@]43C)[C@@H](C1)OC(=O)[C@]2(C)O (stereo partly drawn) [Compound 24, Anomanolide F] | >20 | >20 | >20 | >20 | >20 |  |
| C[C@]1(O)C[C@H]2OC(=O)[C@]1(C)C[C@H]2[C@@]1(O)[C@H](O)C[C@H]2[C@@H]3C[C@H](Cl)[C@]4(O)[C@@H](O)C=CC(=O)[C@]4(C)[C@H]3CC[C@@]21C [Compound 25, Tubonolide A] | 5.09 (≈ 9.44 µM) | 6.54 (≈ 12.1 µM) | 12.03 (≈ 22.3 µM) | 5.91 (≈ 11 µM) | >20 |  |
| COC1CC(=O)[C@]2(C)[C@H]3CC[C@]4(C)[C@@H]([C@@](C)(O)[C@H]5CC(C)=C(C)C(=O)O5)CC[C@H]4[C@@H]3C[C@H]3O[C@]32[C@H]1O (stereo partly drawn) [Compound 16, iso-Tubocapsanolide G] | 5.99 (≈ 11.9 µM) | 7.63 (≈ 15.2 µM) | >20 | 4.73 (≈ 9.41 µM) | 8.18 (≈ 16.3 µM) |  |
